Measured values published in patent US20150368195A1, “INDOLINE COMPOUNDS FOR TREATMENT AND/OR PREVENTION OF INFLAMMATION DISEASES” (Taipei Medical University, priority 2014, published 2015).

Legend:
histone H3 (Acetyl-H3) = assay: histone H3 acetylation, Western blot, HIG-82 synoviocytes; type: cell-based; conditions: 3 μM MPT0G009 or 60 μM SAHA; 6, 12, 24 h; starting at 6 h
RA-FLS [1] = assay: SRB anti-proliferation assay; type: cell-based; conditions: 24 or 48 h incubation
Source text: (§1) (FIG. 1A) Structure of MPT0G009. […] Results in (FIGS. 1B-E) and (FIG. 1G) are means±SEM's for three independent experiments, *p<0.05 and **p<0.01 compared with no added inhibitor.

HIG-82 synoviocytes = assay: SRB anti-proliferation assay; type: cell-based; conditions: 24 or 48 h incubation
Source text: as §1

cyclooxygenase-2 (COX-2) = assay: LPS-induced COX-2 protein expression, Western blot, RAW264.7; type: cell-based, Mouse; conditions: RAW264.7, 0.1-10 μM, LPS 25 ng/mL 24 h
Procedure: Then the cells were harvested and whole cell extracts were prepared for Western blot analysis for iNOS and COX-2. The relative protein expressions are presented as mean±SEM for four replicates. *p<0.05 compared to the LPS-treated group.

prostaglandin E2 (PGE2) = assay: LPS-induced PGE2 production by RA-FLS; type: cell-based; conditions: MPT0G009 0.1, 1, 10 μM; SAHA 0.3, 3, 30 μM; LPS 25 ng/mL 24 h
Procedure: as §1
Furthermore, the anti-inflammatory effects of MPT0G009 was evaluated. […] These supernatants were then assayed for PGE2, NO, and IL-6.

HDAC3 [2] = assay: HDAC isoform protein levels, Western blot, RA-FLS; type: cell-based; conditions: 12 or 24 h; 1 μM MPT0G009 or 30 μM SAHA
Procedure: Then cells were harvested and cell lysates were prepared for Western blot analysis of the indicated proteins. (FIG. 5C) RA-FLS were incubated for 1 h with or without the proteasome inhibitor, MG132 (1 μM). […] Results shown are representative of three independent experiments.

HDAC3 [3] = target: T1, HDAC3 (Homo sapiens, UniProt O15379); assay: recombinant HDAC isoform inhibition (kit); type: biochemical; conditions: mean ± SEM, three replicates
T1 construct: purchased
T1 sequence (O15379 whole entry, species assumed, canonical isoform): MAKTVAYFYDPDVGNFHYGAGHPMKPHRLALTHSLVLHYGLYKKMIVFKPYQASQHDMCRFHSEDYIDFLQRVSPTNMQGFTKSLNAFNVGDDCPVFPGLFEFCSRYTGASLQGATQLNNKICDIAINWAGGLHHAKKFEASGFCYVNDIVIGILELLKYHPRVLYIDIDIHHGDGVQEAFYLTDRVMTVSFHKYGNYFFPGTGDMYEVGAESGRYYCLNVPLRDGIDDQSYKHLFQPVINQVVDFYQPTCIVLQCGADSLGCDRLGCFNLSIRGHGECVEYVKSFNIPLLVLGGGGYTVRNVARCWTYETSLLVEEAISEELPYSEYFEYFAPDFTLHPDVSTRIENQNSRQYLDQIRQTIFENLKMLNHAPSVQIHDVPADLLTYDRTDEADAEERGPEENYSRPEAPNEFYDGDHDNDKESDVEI
T1 sequence (Q9Y618 395-489 partner limits assumed, species assumed): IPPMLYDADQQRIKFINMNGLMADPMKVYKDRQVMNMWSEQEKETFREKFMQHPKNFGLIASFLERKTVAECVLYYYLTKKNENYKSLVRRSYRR
Source text: (§2) Using kits that contained different recombinant HDAC isoforms, we evaluated the ability of MPT0G009 to inhibit HDAC-mediated deacetylation of lysine residues on the substrates that were provided.

HDAC8 = target: T2, HDAC8 (Homo sapiens, UniProt Q9BY41); assay: recombinant HDAC isoform inhibition (kit); type: biochemical; conditions: mean ± SEM, three replicates, read-out: IC50 DHAC8
T2 construct: purchased
T2 sequence (Q9BY41 whole entry, canonical isoform): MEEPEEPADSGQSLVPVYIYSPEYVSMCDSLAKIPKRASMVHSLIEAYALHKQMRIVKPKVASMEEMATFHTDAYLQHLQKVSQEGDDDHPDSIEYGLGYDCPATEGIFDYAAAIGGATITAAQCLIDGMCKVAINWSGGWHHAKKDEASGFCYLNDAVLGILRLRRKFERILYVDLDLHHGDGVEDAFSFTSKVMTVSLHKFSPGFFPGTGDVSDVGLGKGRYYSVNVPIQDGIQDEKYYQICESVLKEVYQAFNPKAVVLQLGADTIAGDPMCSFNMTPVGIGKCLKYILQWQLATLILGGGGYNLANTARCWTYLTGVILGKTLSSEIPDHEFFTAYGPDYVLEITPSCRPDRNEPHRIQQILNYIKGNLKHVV
Source text: as §2

HDAC1 = target: T3, HDAC1 (Homo sapiens, UniProt Q13547); assay: recombinant HDAC isoform inhibition (kit); type: biochemical; conditions: mean ± SEM, three replicates
T3 construct: purchased
T3 sequence (Q13547 whole entry, species assumed, canonical isoform): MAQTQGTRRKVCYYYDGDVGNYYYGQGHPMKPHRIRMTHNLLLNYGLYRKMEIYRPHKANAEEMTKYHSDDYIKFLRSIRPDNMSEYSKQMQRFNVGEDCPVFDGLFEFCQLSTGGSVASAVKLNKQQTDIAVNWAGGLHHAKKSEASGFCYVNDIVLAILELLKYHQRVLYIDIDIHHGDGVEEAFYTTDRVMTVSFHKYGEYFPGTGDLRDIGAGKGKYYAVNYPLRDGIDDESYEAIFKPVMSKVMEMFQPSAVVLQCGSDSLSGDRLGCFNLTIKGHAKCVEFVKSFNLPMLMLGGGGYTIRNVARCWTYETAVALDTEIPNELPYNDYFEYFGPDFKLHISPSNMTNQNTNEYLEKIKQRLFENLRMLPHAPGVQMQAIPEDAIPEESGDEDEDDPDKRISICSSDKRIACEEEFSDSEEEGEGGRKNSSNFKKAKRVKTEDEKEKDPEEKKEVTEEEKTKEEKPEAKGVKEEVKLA
Source text: as §2

HDAC2 = target: T4, HDAC2 (Homo sapiens, UniProt Q92769); assay: recombinant HDAC isoform inhibition (kit); type: biochemical; conditions: mean ± SEM, three replicates
T4 construct: purchased
T4 sequence (Q92769 whole entry, species assumed, canonical isoform): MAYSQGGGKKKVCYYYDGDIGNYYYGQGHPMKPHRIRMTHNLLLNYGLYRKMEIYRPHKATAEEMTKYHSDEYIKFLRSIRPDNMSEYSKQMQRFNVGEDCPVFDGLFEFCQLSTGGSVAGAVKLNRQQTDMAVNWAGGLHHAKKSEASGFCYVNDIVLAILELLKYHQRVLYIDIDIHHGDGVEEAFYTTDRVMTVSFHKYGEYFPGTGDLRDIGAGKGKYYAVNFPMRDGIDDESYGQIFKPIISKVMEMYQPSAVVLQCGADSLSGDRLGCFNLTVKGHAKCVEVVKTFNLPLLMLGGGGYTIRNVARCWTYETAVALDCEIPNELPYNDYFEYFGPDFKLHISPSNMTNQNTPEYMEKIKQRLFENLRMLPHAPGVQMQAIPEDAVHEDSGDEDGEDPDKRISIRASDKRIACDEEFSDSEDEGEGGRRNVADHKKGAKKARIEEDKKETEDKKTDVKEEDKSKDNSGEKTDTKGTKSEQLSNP
Source text: as §2

HDAC6 = target: T5, HDAC6 (Homo sapiens, UniProt Q9UBN7); assay: recombinant HDAC isoform inhibition (kit); type: biochemical; conditions: mean ± SEM, three replicates
T5 construct: purchased
T5 sequence (Q9UBN7 whole entry, species assumed, canonical isoform): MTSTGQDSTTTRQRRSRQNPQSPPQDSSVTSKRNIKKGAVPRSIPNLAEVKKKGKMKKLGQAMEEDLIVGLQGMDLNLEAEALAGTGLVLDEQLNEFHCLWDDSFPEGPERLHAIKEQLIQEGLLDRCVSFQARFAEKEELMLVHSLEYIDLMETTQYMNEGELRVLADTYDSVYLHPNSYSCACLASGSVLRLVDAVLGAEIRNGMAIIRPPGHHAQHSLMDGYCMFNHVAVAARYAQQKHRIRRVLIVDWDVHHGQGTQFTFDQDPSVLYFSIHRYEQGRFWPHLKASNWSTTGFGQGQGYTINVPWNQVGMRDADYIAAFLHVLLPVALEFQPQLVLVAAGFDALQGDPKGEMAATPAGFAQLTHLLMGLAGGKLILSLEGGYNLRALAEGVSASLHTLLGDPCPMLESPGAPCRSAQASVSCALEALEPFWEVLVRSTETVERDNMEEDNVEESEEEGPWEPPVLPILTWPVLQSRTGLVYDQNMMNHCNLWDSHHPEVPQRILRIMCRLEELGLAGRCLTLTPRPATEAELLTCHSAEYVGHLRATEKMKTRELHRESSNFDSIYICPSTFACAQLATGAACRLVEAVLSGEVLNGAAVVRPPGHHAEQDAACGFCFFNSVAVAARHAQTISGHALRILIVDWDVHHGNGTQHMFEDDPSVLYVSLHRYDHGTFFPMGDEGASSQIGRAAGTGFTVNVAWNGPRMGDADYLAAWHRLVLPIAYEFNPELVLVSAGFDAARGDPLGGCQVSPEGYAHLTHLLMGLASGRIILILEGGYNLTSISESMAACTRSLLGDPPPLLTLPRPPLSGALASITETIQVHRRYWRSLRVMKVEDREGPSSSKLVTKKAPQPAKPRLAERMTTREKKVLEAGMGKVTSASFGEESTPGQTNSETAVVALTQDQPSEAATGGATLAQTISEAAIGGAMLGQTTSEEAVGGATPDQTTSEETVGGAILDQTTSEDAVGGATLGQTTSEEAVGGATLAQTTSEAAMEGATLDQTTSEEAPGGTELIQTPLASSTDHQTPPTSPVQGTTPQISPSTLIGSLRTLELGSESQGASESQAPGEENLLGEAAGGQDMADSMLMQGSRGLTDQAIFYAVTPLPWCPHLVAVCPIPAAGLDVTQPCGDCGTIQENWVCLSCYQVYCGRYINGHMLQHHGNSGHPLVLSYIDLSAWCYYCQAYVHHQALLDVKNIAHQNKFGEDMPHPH
Source text: as §2

RA-FLS [4] = assay: cell cycle distribution by flow cytometry (propidium iodide); type: cell-based; conditions: 24 h
Source text: as §1

NFATc1 = assay: RANKL-induced NFATc1 luciferase reporter in RAW264.7 cells; type: cell-based, Mouse; conditions: 5 nM MPT0G009; RANKL 24 h
Procedure: Cells were then tartrate resistant acid phosphatase (TRAP) stained, and the numbers of TRAP-positive multinuclear cells were counted. […] Images are at ×100 magnification, and the arrows indicate differentiated osteoclasts. (FIG. 6C) RAW264.7 cells were treated as in (FIG. 6B), then incubated with a fluorescein isothiocyanate (FITC)-conjugated anti-CD51/61 antibody and analyzed by flow cytometry. (FIGS. 6D and 6E) RAW264.7 cells (1×10^5) were transfected with 1 μg of pGL4.32[luc2P/NF-κB-RE/Hygro] (FIG. 6D) or pGL4.30[luc2P/NFAT-RE/Hygro] (FIG. 6E) for 24 h and then incubated for 30 min with or without MPT0G009 (5 nM). Then RANKL (50 ng/mL) was added and incubation was continued for an additional 24 h, after which luciferase activity was determined. Results in (FIGS. 6A, 6D, and 6E) are the means±SEM's for three independent experiments. **p<0.01 compared with the indicated controls.
We also assessed the effect of MTPOG009 on the DNA-binding activity of NF-kB and NFATc1, two pivotal transcriptional factors involved in RANKL-induced pathways for promoting osteoclast differentiation. When RAW264.7 cells that had been transiently transfected with reporter plasmids were treated with 5 nM MPT0G009 for 30 min before and during 24-h stimulation with RANKL, MPT0G009 inhibited RANKL-induced NF-kB (FIG. 6d) and NFATc1 (FIG. 6e) luciferase activity.

Question: For COc1ccc(S(=O)(=O)N2CCc3cc(C=CC(=O)NO)ccc32)cc1 [Compound 9, 3-[1-(4-methoxybenzenesulfonyl)-2,3-dihydro-1H-indol-5-yl]-N-Hydroxyacrylamide], which “acetylation of histone H3 in HIG-82 synoviocytes” value (histone H3 (Acetyl-H3)) is on record?
Answer: The value was “significant hyperacetylation of histone H3”.

Question: And the “proliferation of RA-FLS” value (RA-FLS [1])?
Answer: The value was “concentration-dependent anti-proliferative effects”.

Question: What about the “proliferation of HIG-82 synoviocytes” value (HIG-82 synoviocytes) of the same compound?
Answer: Its value is “concentration-dependent anti-proliferative effects”.

Question: What about the COX-2 protein expression (cyclooxygenase-2 (COX-2)) of the same compound?
Answer: The COX-2 protein expression was “concentration-dependently inhibitory effects”.

Question: What about the COX-2 protein expression (cyclooxygenase-2 (COX-2); listed as compound 9) of the same compound?
Answer: The COX-2 protein expression was “significantly inhibited”.

Question: And the “PGE2 production by RA-FLS” value (prostaglandin E2 (PGE2))?
Answer: The value was “inhibited”.

Question: What about the “levels of HDAC3 in RA-FLS” value (HDAC3 [2]) of the same compound?
Answer: The value was “decreased levels of HDAC3”.

Question: What about the IC50 (HDAC3 [3]) of the same compound?
Answer: Its IC50 is 1.91 nM.

Question: What about the IC50 (HDAC8) of the same compound?
Answer: Its IC50 is 22.5 nM.

Question: What about the IC50 (HDAC1) of the same compound?
Answer: The IC50 was 4.62 ± 0.81 nM.

Question: And the IC50 (HDAC2)?
Answer: Its IC50 is 5.16 ± 0.76 nM.

Question: What about the IC50 (HDAC6) of the same compound?
Answer: Its IC50 is 8.43 ± 0.72 nM.

Question: And the “subG1 peak (cellular apoptosis)” value (RA-FLS [4]; MPT0G009 1-1000 nM, SAHA 3-3000 nM)?
Answer: The value was “did not increase the subG1 peak”.

Question: And the G0/G1 phase arrest (RA-FLS [4]; all concentrations of both agents)?
Answer: The G0/G1 phase arrest was “G0/G1 phase arrest was observed”.

Question: What about the “RANKL-induced NFATc1 luciferase activity” value (NFATc1) of the same compound?
Answer: Its value is “inhibited”.
